As usually defined, the Kd is a measure of binding affinity in units of concentration.

The text below walks through data of patent US10662193B2, “Carbazole and carboline compounds for use in the diagnosis, treatment, alleviation or prevention of disorders associated with amyloid or amyloid-like proteins” (AC IMMUNE SA, priority 2014, dated 2020).

The target in assay [1] is Tau enriched paired helical filaments (PHF) from human Alzheimer's disease (AD) brains (Homo sapiens, UniProt P10636). The assay is described as follows: Assay 3: backscattering interferometry, dissociation constants (Kd). It is filed as binding. The note with it: PHF batch 6 (pooled frontal cortex, 25 AD patients); read-out: [Kd] on PHF batch 6. An excerpt: Assay 3 (Backscattering Interferometry):
Determination of Dissociation Constants (Kd) of Compounds of this Invention
Enrichment of Paired Helical Filaments (PHF's) from Human Alzheimer's Disease Brains
For backscattering interferometry, Tau enriched paired helical filaments (PHF) from human Alzheimer's disease (AD) brains were used as a target. Due to the limited availability of tissues, to determine dissociation constants (Kd) of compounds of this invention to the target, two different batches of enriched PHF were used. These batches are identified as batch 6 and 7 and were prepared as follows.
PHF batch number 6 was prepared starting from 25 g frontal cortical tissue from post-mortem brains of 25 Alzheimer's disease (AD) patients which were obtained from the London Tissue Bank. The mean age at death for the AD patients was 76 years (48% females). Brain samples were characterized for Braak disease stage (Braak and Braak, 1991), with most donors displaying a stage VI. The postmortem interval between death and brain dissection was between 6 and 65 h. Human brain homogenates were prepared by SB Drug Discovery (Glasgow, Scotland, UK) from the post-mortem cortical tissue of the 25 patients). Each tissue (1 g) was homogenized with a Dounce glass homogenizer in 1.5 mL 100 mM 2-(N-morpholino) ethane-sulfonic acid (MES) pH 6.8, 0.75 M NaCl, 1 mM EGTA, 0.5 mM MgSO4, 2 mM DTT containing protease inhibitors (Complete; Roche 11697498001). For each sample, two aliquots containing 0.5 g brain homogenates in 0.75 mL were shipped to AC Immune SA on dry ice and stored at −80° C. For the enrichment of PHF, 1 aliquot per donor corresponding to total 12.5 g of brain tissue were thawed on ice and then incubated at 4° C. for 20 min to depolymerize any residual microtubules. All samples were then pooled and transferred to three polycarbonate centrifuge bottles (16×76 mm; Beckman 355603).
PHF batch number 7 was prepared starting from 32 g of parietal cortex tissue from post-mortem brain of one Alzheimer's disease (AD) patient was obtained from an external provider (Tissue Solution). The patient was a person who died for end stage AD. The brain sample was collected 5 h post-mortem and characterized for Braak disease stage (Braak and Braak, 1991) as stage VI. The method used for the PHF enrichment was modified from published procedures (Jicha et al., 1997; Rostagno and Ghiso, 2009). Around 16 g of the AD human brain was thawed on ice and homogenized with 50 ml of homogenization buffer [0.75 M NaCl in RAB buffer (100 mM 2-(N-morpholino) ethanesulfonic acid (MES), 1 mM EGTA, 0.5 mM MgSO4, 2 mM DTT, pH 6.8) supplemented with protease inhibitors (Complete; Roche 11697498001)] in a glass Dounce homogenizer. The homogenate was then incubated at 4° C. for 20 min to let depolymerize any residual microtubules, before being transferred into polycarbonate centrifuge bottles (16×76 mm; Beckman 355603). For both purifications, brain homogenates were then centrifuged at 11,000 g (12,700 RPM) in an ultracentrifuge (Beckman, XL100K) for 20 min at 4° C. using the pre-cooled 70.1 rotor (Beckman, 342184). Pellets were kept on ice. Supernatants were pooled into polycarbonate bottles and centrifuged again at 100,000 g (38,000 RPM) for 1 h at 4° C. in the 70.1 Ti rotor to isolate PHF-rich pellets, whereas soluble Tau remained in the supernatants. The pellets from the first and second centrifugations were resuspended in 120 mL of extraction buffer [10 mM Tris-HCl pH 7.4, 10% sucrose, 0.85 M NaCl, 1% protease inhibitor (Calbiochem 539131), 1 mM EGTA, 1% phosphatase inhibitor (Sigma P5726 and P0044)]. The solution was then transferred into polycarbonate centrifuge bottles (16×76 mm; Beckman 355603) and centrifuged at 15,000 g (14,800 RPM) in an ultracentrifuge (Beckman, XL100K) for 20 min at 4° C. using the 70.1 Ti rotor. […]

In assay [2] the test system is tau tangles/Aβ plaques on AD brain sections. The assay is described as follows: Assay 1: direct staining of human Alzheimer's disease brain sections (fluorescence). The class given is binding. The note with it: tangles; for Direct staining of tau tangles on AD brain sections at 100 μM: 100 μM compound. On the set-up: key to Direct staining of tau tangles/Aβ plaques on AD brain sections at 100 μM / Direct staining of tau tangles on AD brain sections at 100 μM / Direct staining of Aβ plaques on AD brain sections at 100 μM / Direct staining of tau tangles on AD brain sections (footnote a: at 250 μM): − (No); +++ (strong); ++ (good); + (weak). An outline of the steps: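 Compounds (100 μM, 50% aqueous ethanol, 20 min, RT, dark) applied directly to fixed […] frozen amygdala sections of Braak stage V-VI Alzheimer's brains. After washing and 0.1% Sudan Black treatment against autofluorescence, sections were imaged microscopically for fluorescent staining.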

Chain of Tau enriched paired helical filaments (PHF) from human Alzheimer's disease (AD) brains (P10636 623-708 limits assumed): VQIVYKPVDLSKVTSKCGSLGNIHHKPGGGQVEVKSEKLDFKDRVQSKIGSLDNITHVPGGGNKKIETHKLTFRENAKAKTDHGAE

Turning to `Cn1c2ccncc2c2ccc(Nc3ccc(F)c(F)c3)nc21` [Example 2], the Kd in assay [1] is 33 ± 5 nM. For the same compound, the “Direct staining of tau tangles on AD brain sections (footnote a: at 250 μM)” value in assay [2] (250 μM compound) is reported as “+ (tangles)^a”.
As to `Cn1c2ccncc2c2ccc(Nc3cccc(OCCF)c3)nc21` [Example 8], the dissociation constant Kd in assay [1] came to 19 ± 3 nM. Besides, in assay [2], the “Direct staining of tau tangles on AD brain sections at 100 μM” value is on record as “++ (tangles)”.
For `Cn1c2ccncc2c2ccc(Nc3ccc(OC(F)F)cc3)nc21` [Example 9], the “Direct staining of tau tangles on AD brain sections at 100 μM” value in assay [2] is “++ (tangles)”.
